Laboratory results published in patent publication US10016400B2, “Composition including rapamycin as active ingredient for preventing or treating hearing loss” (AJOU UNIVERSITY INDUSTRY—ACADEMIC COOPERATION FOUNDATION, priority 2014, dated 2018).

Key:
[1] = tested on: HEI-OC1 cells; assay: RPM effects on apoptosis, MTS assay; type: cell-based
Description: (§1) An auditory cell line, e.g., House-Ear Institute-organ of Corti 1 (HEI-OC1), that expresses auditory genes was used. HEI-OC1 cells were cultured under conditions of a temperature of 33° C. and a CO2 (10%) by adding 10% fetal bovine serum (FBS) and 25 U/ml interferon-gamma to a Dulbecco's modified Eagle's Medium (DMEM) including high concentrations of glutamine. At about 90% confluence of the cultured cells on a bottom surface of a plate, the cell density was maintained within an appropriate range by performing serial subcultures using 2.5% Trypsin-EDTA.
Here, RPM was used as an inducer of autophagy and chloroquine (CQ) was used as an inhibitor of autophagy in terms of pretreatment and combination treatment.

[2] = in vivo; cited from earlier work
[3] = tested on: HEI-OC1 cells; assay: Autophagy in auditory cell line (LC3 staining, western blot, real-time quantitative PCR); type: cell-based; details: HEI-OC1 cells treated with GM
Description: as §1
To observe autophagy in the GM-treated auditory cells, the HEI-OC1 cells, which are the auditory cell line of Example 1-2, were subjected to immunohistochemistry using LC3 antibody, thereby staining autophagosomes, the expression of autophagy-related proteins, e.g., LC3, Beclin-1, and RAS-related GTP-binding proteins (Rab7) was confirmed according to the western blot, and the processes of autophagy were analyzed through real-time quantitative PCR.

[4] = tested on: auditory outer and inner hair cells; assay: Autophagy in cochlear hair cells, immunohistochemistry with LC3 antibodies; type: in vivo; details: GM treatment, rat cochleae
Description: A total of 24 rats were classified into one group of 12 rats treated with 50 pM of rapamycin (RRM) and another group of 12 rats treated with 100 pM of RPM. […] To allow RPM to be well absorbed inside the tympanum, the rats were placed in a lateral decubitus position and stabilized. Meanwhile, rats of which right ears were treated with physiological saline were classified as a control group.
To observe autophagy in the auditory outer hair cells, the cochleae of the rats of Example 1 were subjected to immunohistochemistry using microtubule-associated LC3 (Microtubule-associated protein 1A/1B-light chain 3) antibodies.

Compound: CCN(CC)CCCC(C)Nc1ccnc2cc(Cl)ccc12 (centres unmarked) [CQ, chloroquine]
- apoptosis with GM and autophagy inhibitor ([1]; 5 mM GM with 25 μM CQ): more likely to be undergone the apoptosis

Compound: CO[C@H]1C[C@@H]2CC[C@@H](C)[C@@](O)(O2)C(=O)C(=O)N2CCCC[C@H]2C(=O)O[C@H]([C@H](C)C[C@@H]2CC[C@@H](O)[C@H](OC)C2)CC(=O)[C@H](C)/C=C(\C)[C@@H](O)[C@@H](OC)C(=O)[C@H](C)C[C@H](C)/C=C/C=C/C=C/1C [RPM, rapamycin]
- LD50 value (dose lethal to 50% of the population) [2]: at least 2 g/kg

Compound: gentamicin [GM]
- number of autophagosomes [3]: increased over time
- autophagosomes having a double membrane in auditory outer and inner hair cells [4]: increase in autophagosomes
- HEI-OC1 cells undergone apoptosis ([1]; 5 mM of GM for 48 hours): about 25%
